Experimental data from patent publication US20260335329A1, “PROTEIN PHOSPHATASE AGONIST AND USE” (priority 2022, published 2026).
Where “and” joins values, the source holds several entries; their conditions need not be identical. Equal values may be shown once.

Columns and labels:
[1] = system: p-tauSer396 in SH-SY5Y cells; assay: Okadaic acid-induced phosphorylation of tau protein (p-tauSer396) in SH-SY5Y cells (Western Blot); format: cell-based, human; settings: for p-tauSer396 level (%): 24 h, then okadaic acid 40 nmol/L, SEM
Experimental: SH-SY5Y cells were cultured in vitro for 24 h in culture media containing different concentrations of compound 2. Then, the cells were treated with 40 nmol/L okadaic acid for 24 h. The p-tauSer396 level of the SH-SY5Y cells was measured by the Western Blot assay.

[2] = system: PC12 cells; assay: Survival rate of PC12 cells in the Aβ1-42-induced injury model (CCK-8); format: cell-based; settings: for OD value at 450 nm, Mean ± SD: 2 h, then Aβ1-42 40 μmol/L, 24 h, PC12 cells
[3] = system: PP2A; assay: PP2A protein expression level in PC12 cells treated with Aβ (Western Blot); format: cell-based; settings: then Aβ 40 μmol/L; for PP2A (Western Blot signal) / PP2A protein expression level, β-actin(%): 2 h, 24 h
Experimental: PC12 cells were cultured adherently. 0.1 μmol/L compound 2, 0.5 μmol/L compound 2, 1 μmol/L compound 2, 5 μmol/L compound 2, and 10 μmol/L compound 2 were added respectively. Then, the cells were incubated for 2 h. 40 μmol/L Aβ was then added. Then, the cells were incubated for 24 h. Total protein was extracted. PP2A activity was detected by the Western Blot assay.

[4] = system: PC12 cells; assay: Survival rate of PC12 cells in the okadaic acid-induced injury model (CCK-8); format: cell-based
Experimental: PC12 cells were detached and counted. A cell suspension was prepared at 8.0×10^4 cells/mL. 100 μL of the cell suspension was added to each well of a 96-well cell culture plate. The 96-well cell culture plate was placed in an incubator at 37° C. in 5% CO2 and cultured for 24 h. In an experimental group, the PC12 cells were pre-incubated for 2 h in a culture medium containing a test compound (the concentrations of the compound were 0.1 μmol/L, 0.5 μmol/L, 1 μmol/L, 5 μmol/L, and 10 μmol/L respectively, and the concentrations of the compound were set according to the concentrations in Table 5, Table 6, Table 7, and Table 8). […] In addition, a negative control group (no test compound or okadaic acid added) and a model group (only okadaic acid added) were set. The 96-well cell culture plate was placed in an incubator at 37° C. in 5% CO2 and cultured for 24 h. The cells in the 96-well cell culture plate were stained with 10 μL of CCK-8 in each well, and then cultured in the incubator for 1 h to 2 h. The 96-well cell culture plate was shaken gently for 10 min to mix uniformly and remove bubbles from the 96-well cell culture plate. The OD value of each well at 2=450 nm was read by using a microplate reader. A survival rate of cells was calculated.
Calculation formula for the cell survival rate: […]
The effect of each compound on the survival rate of PC12 cells in the okadaic acid- and Aβ1-42-induced injury models was determined by the CCK-8 cell proliferation assay.

[5] = system: PP2A; assay: Okadaic acid-induced PP2A protein expression level in PC12 cells (Western Blot); format: cell-based; settings: for PP2A (Western Blot signal) / PP2A(%): 2 h, then okadaic acid 40 nmol/L, 24 h
Experimental: PC12 cells were inoculated into a T25 culture flask. After the cells were attached to the wall, compound 1 and compound 2 were added, and then the cells were incubated for 2 h. 40 nmol/L okadaic acid was then added. Then, the cells were incubated for 24 h. The protein was extracted. Based on the Western Blot assay, the PP2A protein expression level in PC12 cells was detected through SDS-PAGE and transfer, immunoblotting, color development, and G: BOX chemiXR5 imaging.

[6] = compound 0.1 μmol/L, PC12 cells
[7] = compound 0.5 μmol/L, PC12 cells

## COCc1cc2oc(=N)c3ccccc3n2n1 [Compound 2, 2-(methoxymethyl)-5H-benzo[d]pyrazolo[5,1-b][1,3]oxazin-5-imine]
[1]; compared with okadaic acid only
  okadaic acid-induced phosphorylation of tau protein: can significantly inhibit okadaic acid-induced phosphorylation of tau protein in cells
[1]; compound 0.1 μmol/L, n = 3
  p-tauSer396 level (%): 0.761 ± 0.008%
[1]; compound 0.3 μmol/L, n = 3
  p-tauSer396 level (%): 0.663 ± 0.027%
[1]; compound 1.0 μmol/L and 3.0 μmol/L
  change of p-tauSer396 level: decreases significantly (P<0.05)
[1]; compound 1.0 μmol/L, n = 3, P<0.05 vs negative control
  p-tauSer396 level (%): 0.557 ± 0.013 %
[1]; compound 3.0 μmol/L, n = 3, P<0.05 vs negative control
  p-tauSer396 level (%): 0.578 ± 0.025 %
[1]; compound 10 μmol/L
  change of p-tauSer396 level: decreases significantly (P<0.01)
[1]; compound 10 μmol/L, n = 3, P<0.01 vs negative control
  p-tauSer396 level (%): 0.522 ± 0.016 %
[2]; Rattus norvegicus, PC-12, 24 h
  viability at 0.1 µM: 50.7%
  viability at 0.5 µM: 50.6%
  viability at 1 µM: 55.7%
  viability at 5 µM: 68.3%
  viability at 10 µM: 79.1%
[2]; compound 0.1 μmol/L
  OD value at 450 nm, Mean ± SD: 0.699 ± 0.027
[2]; compound 0.5 μmol/L
  OD value at 450 nm, Mean ± SD: 0.698 ± 0.024
[2]; compound 1 μmol/L
  OD value at 450 nm, Mean ± SD: 0.768 ± 0.015
[2]; compound 5 μmol/L
  OD value at 450 nm, Mean ± SD: 0.941 ± 0.018
[2]; compound 10 μmol/L
  OD value at 450 nm, Mean ± SD: 1.09 ± 0.026
[2]; compound 0.1 and 0.5 μmol/L
  survival rate compared with Aβ1-42 model group: no statistical difference (P>0.05)
[2]; compound 1, 5 and 10 μmol/L
  survival rate compared with Aβ1-42 model group: statistical differences (P<0.01)
[3]; [6]
  PP2A (Western Blot signal): 1025.7
  PP2A protein expression level, β-actin(%): 31.24%
[3]; [7]
  PP2A (Western Blot signal): 1129.7
  PP2A protein expression level, β-actin(%): 33.18%
[3]; compound 1 μmol/L, PC12 cells
  PP2A (Western Blot signal): 1180.1
  PP2A protein expression level, β-actin(%): 33.51%
[3]; compound 5 μmol/L, PC12 cells
  PP2A (Western Blot signal): 1284.7
  PP2A protein expression level, β-actin(%): 35.61%
[3]; compound 10 μmol/L, PC12 cells
  PP2A (Western Blot signal): 2192.1
  effect on PP2A protein expression level: can significantly increase the PP2A protein expression level
[3]; compound 10 μmol/L, PC12 cells (normal cells 58.95%)
  PP2A protein expression level, β-actin(%): 58.59%
[3]; compound 0.1, 0.5, 1 and 5 μmol/L, PC12 cells
  effect on PP2A protein expression level: can increase the PP2A protein expression level in PC12 cells that is reduced due to Aβ, in a specific dose-effect relationship
[4]; Rattus norvegicus, PC-12, 24 h, compound 0.1 μmol/L, 2 h, then okadaic acid 50 nmol/L, 24 h, PC12 cells
  viability at 0.1 µM: 49.2%
[4]; Rattus norvegicus, PC-12, 24 h, compound 0.5 μmol/L, 2 h, then okadaic acid 50 nmol/L, 24 h, PC12 cells
  viability at 0.5 µM: 51%
[4]; Rattus norvegicus, PC-12, 24 h, compound 1 μmol/L, 2 h, then okadaic acid 50 nmol/L, 24 h, PC12 cells
  viability at 1 µM: 59.4%
[4]; Rattus norvegicus, PC-12, 24 h, compound 5 μmol/L, 2 h, then okadaic acid 50 nmol/L, 24 h, PC12 cells
  viability at 5 µM: 70.8%
[4]; Rattus norvegicus, PC-12, 24 h, compound 10 μmol/L, 2 h, then okadaic acid 50 nmol/L, 24 h, PC12 cells
  viability at 10 µM: 78.4%
[4]; compound 0.1 μmol/L, 2 h, then okadaic acid 50 nmol/L, 24 h, PC12 cells
  OD value at 450 nm, Mean ± SD: 0.652 ± 0.018
[4]; compound 0.5 μmol/L, 2 h, then okadaic acid 50 nmol/L, 24 h, PC12 cells
  OD value at 450 nm, Mean ± SD: 0.676 ± 0.016
[4]; compound 1 μmol/L, 2 h, then okadaic acid 50 nmol/L, 24 h, PC12 cells
  OD value at 450 nm, Mean ± SD: 0.787 ± 0.028
[4]; compound 5 μmol/L, 2 h, then okadaic acid 50 nmol/L, 24 h, PC12 cells
  OD value at 450 nm, Mean ± SD: 0.92 ± 0.008 and 0.967 ± 0.018
[4]; compound 5 μmol/L, 2 h, then okadaic acid 50 nmol/L, 24 h, PC12 cells, 1440 min, 5 µM
  Survival rate %: 72.93%
[4]; compound 10 μmol/L, 2 h, then okadaic acid 50 nmol/L, 24 h, PC12 cells
  OD value at 450 nm, Mean ± SD: 1.04 ± 0.017
[4]; compound 0.1 and 0.5 μmol/L
  survival rate compared with okadaic acid model group: no statistical difference (P>0.05)
[4]; compound 1, 5 and 10 μmol/L
  survival rate compared with okadaic acid model group: significant statistical differences (P<0.01)
[5]; compound 1 μmol/L
  PP2A (Western Blot signal): 557.1
  PP2A(%): 14%
[5]; compound 5 μmol/L
  PP2A (Western Blot signal): 688.01
  PP2A(%): 18%
[5]; compound 10 μmol/L
  PP2A (Western Blot signal): 1130.4
  PP2A(%): 29%
[5]; compound 1, 5 and 10 μmol/L, compared with okadaic acid only
  effect on the PP2A expression level: can significantly increase the PP2A expression level dose-dependently
